This is an account of results in PMC5862592, “CDK8/19 inhibition induces premature G1/S transition and ATR-dependent cell death in prostate cancer cells” (Oncotarget, 2018).

Common to all, as to assay: biochemical
Common to all, as to design: KINOMEscan active site-directed competition binding assay (DiscoveRx), 456 kinases, per cent of control at 300 nM
What all share (details): read-out: Percent of Control (%)

For one test, the target named is ACVR2A (Homo sapiens, UniProt P27037). A digest of the protocol:
(§1)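 Kinase panel (456 enzymes) profiled by competitive displacement at the active site; compounds run at 300 nmol/L.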

Another test deals with ACVR1 (Homo sapiens, UniProt Q04771). The essentials:
as §1

The target in a further test is FLT3(K663Q) (Homo sapiens, UniProt P36888, K663Q). A digest of the protocol: as §1
Test [1] concerns the target EGFR(L747-S752del, P753S) (Homo sapiens, UniProt P00533, DEL747-752/P753S). The essentials:
as §1

In test [2] the target is T1, ABL1(E255K)-phosphorylated (Homo sapiens, UniProt P00519, E255K).
T1 construct: phosphorylated
A digest of the protocol: as §1

The target in a further test is PIP5K1A (Homo sapiens, UniProt Q99755). A digest of the protocol:
as §1

The target in another test is NEK1 (Homo sapiens, UniProt Q96PY6). The essentials:
as §1

In the next test the target is T2, VEGFR2 (Homo sapiens, UniProt P35968).
T2 construct: gene KDR
A digest of the protocol: as §1

A further test deals with STK36 (Homo sapiens, UniProt Q9NRP7). The essentials:
as §1

In another test the target is KIT-autoinhibited (Homo sapiens, UniProt P10721). A digest of the protocol: as §1
KIT-autoinhibited, sequence (P10721 whole entry): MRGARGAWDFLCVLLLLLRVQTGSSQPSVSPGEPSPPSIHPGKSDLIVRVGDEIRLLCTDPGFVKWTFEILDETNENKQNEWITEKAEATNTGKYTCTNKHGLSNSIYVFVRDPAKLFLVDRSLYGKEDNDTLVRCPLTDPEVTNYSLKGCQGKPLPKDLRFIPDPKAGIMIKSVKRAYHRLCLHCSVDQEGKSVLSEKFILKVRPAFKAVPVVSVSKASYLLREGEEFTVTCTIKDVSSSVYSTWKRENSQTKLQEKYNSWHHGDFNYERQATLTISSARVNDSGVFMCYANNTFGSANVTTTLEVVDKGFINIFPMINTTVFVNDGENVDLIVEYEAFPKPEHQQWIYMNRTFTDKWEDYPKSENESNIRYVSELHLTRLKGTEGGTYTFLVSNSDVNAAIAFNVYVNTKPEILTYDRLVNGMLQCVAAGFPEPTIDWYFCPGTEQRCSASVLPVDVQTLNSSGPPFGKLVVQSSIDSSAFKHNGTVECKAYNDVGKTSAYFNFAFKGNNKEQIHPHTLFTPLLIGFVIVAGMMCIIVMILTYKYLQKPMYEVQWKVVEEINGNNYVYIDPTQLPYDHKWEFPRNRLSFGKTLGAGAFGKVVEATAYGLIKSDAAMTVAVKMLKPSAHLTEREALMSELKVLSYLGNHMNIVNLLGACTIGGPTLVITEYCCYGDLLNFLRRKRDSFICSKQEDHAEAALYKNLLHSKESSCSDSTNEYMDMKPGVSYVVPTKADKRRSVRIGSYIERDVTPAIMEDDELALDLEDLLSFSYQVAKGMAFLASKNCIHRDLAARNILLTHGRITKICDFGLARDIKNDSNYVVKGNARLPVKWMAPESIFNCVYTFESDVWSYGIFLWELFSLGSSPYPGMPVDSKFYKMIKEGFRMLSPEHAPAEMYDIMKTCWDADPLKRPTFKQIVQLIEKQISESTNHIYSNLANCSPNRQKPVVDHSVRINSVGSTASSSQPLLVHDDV
The target of another test is ANKK1 (Homo sapiens, UniProt Q8NFD2). A digest of the protocol: as §1
In the next test the target is KIT(A829P) (Homo sapiens, UniProt P10721, A829P). The essentials: as §1
KIT(A829P), sequence (P10721 whole entry A829P): as the sequence (P10721 whole entry) above, with A829P counted along it
In another test the target is PRKG2 (Homo sapiens, UniProt Q13237). A digest of the protocol:
as §1

The target in a further test is SYK (Homo sapiens, UniProt P43405). The essentials:
as §1

In the next test the target is CHEK1 (Homo sapiens, UniProt O14757). A digest of the protocol: as §1
The target of another test is NEK5 (Homo sapiens, UniProt Q6P3R8). A digest of the protocol:
as §1

In the next test the target is PIK3CA(I800L) (Homo sapiens, UniProt P42336, I800L). The essentials:
as §1

A further test deals with PIK3CG (Homo sapiens, UniProt P48736). A digest of the protocol: as §1
PIK3CG, sequence (P48736 whole entry): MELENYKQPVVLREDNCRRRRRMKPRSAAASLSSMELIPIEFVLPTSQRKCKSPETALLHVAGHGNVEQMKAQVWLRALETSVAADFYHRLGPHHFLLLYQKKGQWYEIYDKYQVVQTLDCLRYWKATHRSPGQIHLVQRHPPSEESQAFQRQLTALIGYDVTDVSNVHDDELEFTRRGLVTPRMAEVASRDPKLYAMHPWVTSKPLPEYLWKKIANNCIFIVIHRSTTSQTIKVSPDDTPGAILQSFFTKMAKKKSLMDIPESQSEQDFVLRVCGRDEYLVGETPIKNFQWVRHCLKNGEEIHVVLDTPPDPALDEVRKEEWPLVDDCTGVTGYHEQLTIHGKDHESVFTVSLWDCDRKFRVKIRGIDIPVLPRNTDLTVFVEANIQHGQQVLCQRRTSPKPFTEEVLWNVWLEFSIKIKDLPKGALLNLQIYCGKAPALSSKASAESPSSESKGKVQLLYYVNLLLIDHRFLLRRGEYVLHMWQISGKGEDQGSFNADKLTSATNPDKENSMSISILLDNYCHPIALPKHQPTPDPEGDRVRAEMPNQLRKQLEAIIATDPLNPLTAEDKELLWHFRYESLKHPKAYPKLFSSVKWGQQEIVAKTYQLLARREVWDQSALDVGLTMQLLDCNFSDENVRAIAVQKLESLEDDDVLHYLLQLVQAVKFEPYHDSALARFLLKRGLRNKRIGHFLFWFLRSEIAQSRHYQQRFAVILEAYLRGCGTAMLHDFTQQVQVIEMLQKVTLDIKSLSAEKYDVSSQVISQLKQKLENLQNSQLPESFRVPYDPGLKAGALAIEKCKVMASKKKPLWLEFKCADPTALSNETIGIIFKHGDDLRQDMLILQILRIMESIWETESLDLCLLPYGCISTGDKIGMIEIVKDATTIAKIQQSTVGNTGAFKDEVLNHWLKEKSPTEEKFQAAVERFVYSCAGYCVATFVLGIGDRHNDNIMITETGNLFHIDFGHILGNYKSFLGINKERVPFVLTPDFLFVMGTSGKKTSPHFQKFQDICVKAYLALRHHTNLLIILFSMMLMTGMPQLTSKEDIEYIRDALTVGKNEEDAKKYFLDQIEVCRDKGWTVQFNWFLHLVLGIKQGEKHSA
The next test has as its target ERBB4 (Homo sapiens, UniProt Q15303). A digest of the protocol:
as §1

Another test has as its target MAP4K5 (Homo sapiens, UniProt Q9Y4K4). The essentials: as §1
The target of the next test is T3, YANK1 (Homo sapiens, UniProt Q8WU08).
T3 construct: gene STK32A
A digest of the protocol:
as §1

The next test addresses PRKCQ (Homo sapiens, UniProt Q04759). The essentials: as §1

Read-outs that look alike come from different tables or passages of the source.

PRKG2, sequence (Q13237 whole entry): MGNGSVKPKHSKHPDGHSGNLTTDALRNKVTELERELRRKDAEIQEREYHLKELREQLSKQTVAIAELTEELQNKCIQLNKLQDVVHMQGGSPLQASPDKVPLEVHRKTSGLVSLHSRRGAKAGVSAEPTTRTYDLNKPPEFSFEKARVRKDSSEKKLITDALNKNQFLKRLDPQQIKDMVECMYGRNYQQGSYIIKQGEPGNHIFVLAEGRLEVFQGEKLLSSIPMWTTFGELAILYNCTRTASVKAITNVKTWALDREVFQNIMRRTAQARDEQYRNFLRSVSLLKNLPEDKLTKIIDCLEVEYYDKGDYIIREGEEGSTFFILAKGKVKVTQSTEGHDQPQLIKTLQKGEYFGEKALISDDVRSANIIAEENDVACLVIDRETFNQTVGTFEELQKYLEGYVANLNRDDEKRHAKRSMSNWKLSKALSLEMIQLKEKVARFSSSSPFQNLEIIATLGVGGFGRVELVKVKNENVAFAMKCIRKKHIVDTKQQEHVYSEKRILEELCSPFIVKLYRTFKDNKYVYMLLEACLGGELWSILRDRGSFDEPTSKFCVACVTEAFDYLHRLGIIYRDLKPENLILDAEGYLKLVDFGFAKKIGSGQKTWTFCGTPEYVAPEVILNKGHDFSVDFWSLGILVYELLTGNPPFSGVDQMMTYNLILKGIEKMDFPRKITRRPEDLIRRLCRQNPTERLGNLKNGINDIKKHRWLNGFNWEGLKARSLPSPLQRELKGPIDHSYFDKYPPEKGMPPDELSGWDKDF
ERBB4, sequence (Q15303 whole entry): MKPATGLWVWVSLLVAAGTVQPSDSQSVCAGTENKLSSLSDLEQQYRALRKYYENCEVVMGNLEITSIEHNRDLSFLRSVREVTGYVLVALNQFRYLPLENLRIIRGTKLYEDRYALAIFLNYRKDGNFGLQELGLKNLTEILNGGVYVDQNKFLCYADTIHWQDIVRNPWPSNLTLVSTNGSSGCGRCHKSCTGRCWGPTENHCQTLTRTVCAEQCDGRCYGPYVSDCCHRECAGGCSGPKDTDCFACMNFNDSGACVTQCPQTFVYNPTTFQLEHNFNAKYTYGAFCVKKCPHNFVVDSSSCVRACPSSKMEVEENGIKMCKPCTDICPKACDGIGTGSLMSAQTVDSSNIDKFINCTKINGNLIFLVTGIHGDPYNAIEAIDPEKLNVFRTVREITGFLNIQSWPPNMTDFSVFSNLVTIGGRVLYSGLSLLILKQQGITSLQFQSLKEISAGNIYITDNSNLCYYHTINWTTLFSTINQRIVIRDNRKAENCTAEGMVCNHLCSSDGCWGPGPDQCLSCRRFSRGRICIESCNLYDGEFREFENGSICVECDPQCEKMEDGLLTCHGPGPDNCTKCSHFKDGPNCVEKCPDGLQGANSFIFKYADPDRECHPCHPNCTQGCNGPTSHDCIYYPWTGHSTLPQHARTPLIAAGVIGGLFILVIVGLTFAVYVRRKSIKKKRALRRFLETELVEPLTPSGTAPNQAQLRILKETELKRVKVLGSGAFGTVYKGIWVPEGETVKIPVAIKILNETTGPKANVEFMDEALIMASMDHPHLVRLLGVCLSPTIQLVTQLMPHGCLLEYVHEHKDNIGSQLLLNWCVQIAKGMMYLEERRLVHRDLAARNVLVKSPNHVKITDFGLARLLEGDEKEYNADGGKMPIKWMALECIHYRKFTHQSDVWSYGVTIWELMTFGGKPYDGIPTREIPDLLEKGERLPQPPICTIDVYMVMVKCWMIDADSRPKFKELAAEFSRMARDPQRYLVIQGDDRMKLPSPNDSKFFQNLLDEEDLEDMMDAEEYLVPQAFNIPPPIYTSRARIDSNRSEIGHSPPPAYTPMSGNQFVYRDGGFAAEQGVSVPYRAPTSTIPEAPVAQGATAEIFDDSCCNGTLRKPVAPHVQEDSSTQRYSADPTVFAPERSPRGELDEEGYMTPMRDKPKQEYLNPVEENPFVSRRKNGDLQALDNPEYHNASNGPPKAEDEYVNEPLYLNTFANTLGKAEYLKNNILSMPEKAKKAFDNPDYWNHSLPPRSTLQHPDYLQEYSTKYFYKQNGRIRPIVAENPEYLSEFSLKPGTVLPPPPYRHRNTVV
NEK5, sequence (Q6P3R8 whole entry): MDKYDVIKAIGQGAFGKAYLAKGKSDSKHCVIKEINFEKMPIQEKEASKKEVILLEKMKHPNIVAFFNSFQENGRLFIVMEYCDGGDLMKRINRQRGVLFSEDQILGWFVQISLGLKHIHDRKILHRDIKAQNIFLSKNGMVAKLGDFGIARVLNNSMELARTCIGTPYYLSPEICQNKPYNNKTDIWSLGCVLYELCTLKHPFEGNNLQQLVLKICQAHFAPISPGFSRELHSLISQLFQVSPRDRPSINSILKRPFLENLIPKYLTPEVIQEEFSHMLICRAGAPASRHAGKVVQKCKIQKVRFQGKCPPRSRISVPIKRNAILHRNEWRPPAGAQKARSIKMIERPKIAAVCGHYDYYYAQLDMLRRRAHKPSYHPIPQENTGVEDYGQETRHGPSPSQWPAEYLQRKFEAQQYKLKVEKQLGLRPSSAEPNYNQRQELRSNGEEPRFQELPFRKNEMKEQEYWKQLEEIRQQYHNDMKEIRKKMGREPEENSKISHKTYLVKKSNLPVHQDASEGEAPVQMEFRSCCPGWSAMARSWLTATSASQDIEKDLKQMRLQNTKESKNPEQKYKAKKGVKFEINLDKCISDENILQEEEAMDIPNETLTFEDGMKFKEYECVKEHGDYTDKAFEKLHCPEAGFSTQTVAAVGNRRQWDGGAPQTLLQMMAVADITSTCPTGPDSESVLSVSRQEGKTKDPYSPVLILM

For `O=C(/C=C/c1cnccc1-c1ccc(F)cc1)Nc1ccc(CCc2nnco2)cc1` [T-418, (2E)-3-(4-(4-fluorophenyl)pyridin-3-yl)-N-(4-(2-(1,3,4-oxadiazol-2-yl)ethyl)phenyl)acrylamide], the remaining binding at 0.3 µM was 91% at ACVR2A (sheet T-418); 100% at ACVR1 (sheet T-418); 100% at FLT3(K663Q) (sheet T-418); 87% in test [1] (sheet T-418); 83% in test [2] (sheet T-418); 94% on PIP5K1A (sheet T-418). For the same molecule, the remaining binding at 0.3 µM at NEK1 (sheet T-418) amounted to 90%; at VEGFR2 (sheet T-418) it was 100%; on STK36 (sheet T-418) it was 100%; at KIT-autoinhibited (sheet T-418) it was 100%; at ANKK1 (sheet T-418), 89%; at KIT(A829P) (sheet T-418), 100%. The remaining binding at 0.3 µM amounted to 49% on PRKG2 (sheet T-418); 100% at SYK (sheet T-418); 100% at CHEK1 (sheet T-418); 100% at NEK5 (sheet T-418); 51% on PIK3CA(I800L) (sheet T-418); 100% at PIK3CG (sheet T-418). Besides, the remaining binding at 0.3 µM on ERBB4 (sheet T-418) came out at 89%; on MAP4K5 (sheet T-418), 85%; at YANK1 (sheet T-418), 100%; at PRKCQ (sheet T-418) it was 83%.
Regarding `Cc1ncccc1Oc1sc(C(N)=O)c2c1-c1c(cnn1C)CC2` [T-474, 1-methyl-8-((2-methylpyridin-3-yl)oxy)-4,5-dihydro-1H-thieno[3,4-g]indazole-6-carboxamide], the remaining binding at 0.3 µM was 87% at ACVR2A; 100% at ACVR1; 100% at FLT3(K663Q); 61% in test [1]; 83% in [2]; 99% on PIP5K1A. The remaining binding at 0.3 µM at NEK1 came out at 95%; at VEGFR2 it was 100%; on STK36 it was 100%; on KIT-autoinhibited, 100%; at ANKK1, 100%; at KIT(A829P), 99%. Also, the remaining binding at 0.3 µM on PRKG2 amounted to 48%; on SYK it was 100%; at CHEK1, 100%; on NEK5, 100%; at PIK3CA(I800L), 77%; on PIK3CG it was 88%. Besides, the remaining binding at 0.3 µM at ERBB4 stood at 100%; on MAP4K5, 70%; at YANK1, 100%; on PRKCQ it was 100%.
